Measurements published in US3959248A, “Analogs of thyrotropin-releasing hormone” (Merck & Co., Inc., priority 1975, dated 1976).

Legend:
thyrotropin release = assay: thyrotropin releasing hormone activity (TS, thyrotropin stimulation), in vivo assay; conditions: multiple of the control TS activity of TRH, which has the value 1
Description: (§1) The tripeptides of the present invention are found to have anti-depressant activity and thyrotropin releasing hormone activity. Their activity as anti-depressants is as central nervous system (CNS) stimulants and was determined by testing representative tripeptides of the present invention using in vivo assay based on restoration of anti-convulsant action of methazolamide in picolinic acid treated mice. The thyrotropin releasing hormone activity of the present tripeptides was determined using the in vivo assay substantially as described in "Vitamins and Hormone" R.S. Harris et al, 29, 3-4 (1971).
(§2) The following table contains activity data for a number of representative peptides of the present invention. The protocols used to obtain the data were those described above. The results are expressed numerically as multiples of the TS (thyrotropin stimulation) and AD (anti-depressant) activity compared to the control TS and AD activities of TRH which have the value 1. The designation S.N. is used to indicate substantially no detectable activity at the dosage level tested.

[1] = system: picolinic acid treated mice; assay: anti-depressant (CNS stimulant) activity: restoration of anti-convulsant action of methazolamide in picolinic acid treated mice; conditions: multiple of the control AD activity of TRH, which has the value 1, in vivo
Description: as §1, §2

NC(=O)[C@@H]1CCCN1C(=O)[C@H](Cc1c[nH]cn1)NC(=O)[C@@H]1CCC(=O)N1 [TRH, L-pyroglutamyl-L-histidyl-L-proline amide]
TS (thyrotropin stimulation) activity (thyrotropin release): 1 | AD (anti-depressant) activity [1]: 1
